Laboratory results from patent EP1565179B1, “COMPOSITION COMPRISING A CARBAMIC ACID DERIVATIVE, ITS USE AS COSMETIC AND MEDICINE” (Laboratoires Expanscience, priority 2002, dated 2004).

What was measured:
[1] = test system: cellules dendritiques générées in vitro à partir de précurseurs CD34+ issus de sang de cordon; assay: Migration of hapten BB-sensitised in vitro generated dendritic/Langerhans cells through Matrigel in a two-compartment culture chamber; assay type: cell-based
Procedure: Des cellules mononuclées ont été obtenues à partir de sang de cordon ombilical de donneurs sains, par centrifugation sur Ficoll. Les cellules CD34+ ont ensuite été purifiées par immunosélection à l'aide d'anticorps spécifique et de billes magnétiques (Miltenyi Biotech, Allemagne). Les cellules CD34+ ont été cultivées en présence de GM-CSF (100 ng/ml), TNF-α (2,5 ng/ml) en RPMI additionné de 10% sérum de veau foetal, pendant 5 jours. L'addition de TGF-β1, facteur qui favorise la différenciation des cellules vers la voie cellules de Langerhans, a été réalisée au cinquième jour de culture.
Le milieu de base choisi pour l'ensemble de l'étude a été le RPMI 1640 (Gibco BRL, France). Le composé A fourni par EXPANSCIENCE, à la concentration de 10^-2 M en solution dans du DMSO (Diméthyl Sulfoxide), a été dilué en RPMI-1640 et testé à 1 µM.
Les cellules ont été traitées, au septième jour, par l'haptène BB (Base de Brandowski, 1,17 µg/ml), pendant 24 h, puis soumises au test de migration.
Un système de chambre de culture à deux compartiments (Falcon, Becton Dickinson, France) a été utilisé. Le compartiment supérieur est séparé du compartiment inférieur par une membrane de porosité 8 µm, sur laquelle sont déposées 50 µg/cm^2 de Matrigel. […]

[2] = test system: cellules de Langerhans (CL) et cellules dendritiques (CD); assay: Migration of skin dendritic cells (FITC+) to draining lymph nodes in mice after topical FITC hapten application; assay type: in vivo, souris; conditions: 0,5% topical formulation on mouse ears twice daily for 4 days; 1,5% FITC; lymph nodes analysed 24 h later
Description: Le FITC (Fluorescéine isothiocyanate, Sigma, St. Louis, MO) a été dilué extemporanément dans un mélange acétone: dibutylphthalate (1:1).
L'acide carbamique A (acide 1-Hydroxyméthyl-tridécyl carbamique) et le LU105 (LU 105 est un inhibiteur de MMPs, correspondant à un extrait peptidique de lupin blanc commercialisé par la Société Expanscience sous le nom de marque Actimp 193®) ont été fournis par les "Laboratoires Expanscience", et formulés seuls ou en association dans un véhicule inerte compatible avec une application topique tel que décrit à l'exemple 1 ci-dessus [Acide carbamique A (0,5%) ± LU105 (2%)]. Les différentes formulations ont été appliquées sur les oreilles de souris deux fois par jour pendant 4 jours consécutifs. Trois heures après la dernière application, 1,5% de FITC sont appliqués sur les deux oreilles (l'une traitée et l'autre non traitée (Contrôle)).
L'effet des deux molécules a été évalué in vivo chez la souris. La peau des deux oreilles est badigeonnée avec 1,5% FITC (2X5 µl). 24 h après, les souris sont sacrifiées et une suspension cellulaire est préparée à partir des ganglions auriculaires et cervicaux (ganglions drainants, ci-après dénommés GL) ou à partir des ganglions popliteaux (ganglions non drainants, contrôle négatif). Les tissus ont été découpés et les cellules sont séparées par filtration (filtre […], Falcon; Becton Dickinson), puis lavés. […]

`CCCCCCCCCCCCC(CO)NC(=O)O` (stereo not drawn) [Composé A, (1-Hydroxyméthyl-tridécyl)-acide carbamique] was tested, and the “Pourcentage de cellules dendritiques générées in vitro ayant migré” value ([1]; 1 µM, cells sensitised with hapten BB (1,17 µg/ml, 24 h), 18 h incubation at 37°C, BB-only control 20) was 15%, the inhibition at 1 µM ([1]; read-out: inhibition de la migration des cellules dendritiques générées in vitro et activées par l'haptène BB) was 25% and the “Inhibition de la migration en %” value [2] was 25%.
